The results in this text go back to PubChem BioAssay AID1863 (Southern Research Specialized Biocontainment Screening …, 2009).

This test relates to S. Typhimurium PhoP-regulated promoter GFP reporter, 4 h. Briefly: PhoP-dependent GFP reporter repression – Salmonella Typhimurium, primary screen (AID 1863).

Regarding `CC(=O)Oc1cc2cccc(OC(C)=O)c(=O)c2c(OC(C)=O)c1OC(C)=O`, the IC50 is 46.7 µM. Consider `O=c1c2c(-c3ccccc3)csc2nc2c3ccccc3c(NCCN3CCOCC3)nn12`, for which the IC50 is 53.3 µM.

`c1cnc2c(c1)ccc1cccnc12`: the IC50 is 39.5 µM. The figure for `C#CCOCCOCCOCCNc1nc(N2CCN(C(=O)CCCCCCCCCCNC(=O)[C@H](CO)n3cc(CCCCCN)nn3)CC2)nc(N2CCN(C(=O)CCCCCCCCCCNC(=O)[C@H](CCCN=C(N)N)n3cc(C[C@@H](C)CC)nn3)CC2)n1` is 102 µM; for `CCOC(=O)N1CCN(C(c2cccnc2)c2ccc3cccnc3c2O)CC1` (stereo unspecified) it is 122 µM.

In the case of `COC12C(COC(N)=O)C3=C(C(=O)C(C)=C(N)C3=O)N1CC1C2N1C` (stereo unspecified), the IC50 is 16.3 µM.

Regarding `COc1ccc(Nc2cc(C)nc(NCc3ccccc3)n2)cc1`, the IC50 was 97.1 µM.

`Oc1c(Cl)cc(Cl)c2cccnc12`: the IC50 is 27.9 µM. In the case of `CC1CCC(C(C)C)C(OC(=O)Cn2c(-c3ccc(Cl)cc3)[n+](C)c3ccccc32)C1` (stereo unspecified), the IC50 was 83.7 µM. `COc1nsnc1NS(=O)(=O)c1ccc(NC(=S)NC(=O)c2cccnc2)cc1`: the concentration for half-maximal inhibition (IC50) was 116 µM.

With `COc1ccc(Nc2cc(C)c3c(O)cccc3n2)cc1`, the IC50 was 68.6 µM.

The term IC50 denotes the concentration needed to halve the response being measured.
